Consider one molecule from patent US10294234B2, “HIV inhibitor compounds” (priority 2017, dated 2019).

Series [1] deals with HIV-1 (IIIB) in MT-4 cells. In words: MT-4 HIV assay. The series is classed as cell-based. To be noted: Human immunodeficiency virus 1, MT4, 120 h; HIV-1 (IIIB), MT-4 cells, 5 days, Cell Titer Glo; read-out: EC50. Put shortly:
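Antiviral activity was read by Cell Titer Glo after a 5-day, 37 °C culture of MT-4 cells pre-infected with a 1:250 dilution of HIV-1 (IIIB). Compounds were tested as threefold dilution series in complete RPMI. Controls were no drug, mock infection and 5 uM AZT.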
In general terms: Cellular ATP, detected with luciferase, serves as a proxy for viable cell number.

Series [2] can be described thus: in vivo. To be noted: rat, in vivo. In a few lines:
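Male SD rats (n=3/group, 0.27–0.32 kg), fasted overnight, given 0.5 or 1.0 mg/kg by 30-min IV infusion, or by oral gavage. Serial plasma samples (EDTA-K2) over 24 h measured by LC/MS/MS; non-compartmental PK analysis.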

In series [3] the test system is HIV-1 (IIIB) in MT-4 cells. In words: MT-4 HIV High Resolution Antiviral Assay. In kind it is cell-based. As to the method:
Compounds were tested in a high-throughput 384-well assay format for their ability to inhibit the replication of HIV-1 (IIIB) in MT-4 cells. Compounds were serially diluted (1:3) in DMSO on 384-well polypropylene plates and further diluted 200-fold into complete RPMI media (10% FBS, 1% P/S) using the Biotek Micro Flow and Agilent ECHO acoustic dispenser. Each plate contained up to 8 test compounds, with negative (No Drug Control) and 5 uM AZT positive controls. MT-4 cells were pre-infected with 10 uL of either RPMI (mock-infected) or a fresh 1:250 dilution of an HIV-1 (IIIB) concentrated virus stock. Infected and uninfected MT-4 cells were further diluted in complete RPMI media and added to each plate using a Micro Flow dispenser. After 5 days incubation in a humidified and temperature controlled incubator (37° C.), Cell Titer Glo (Promega) was added to the assay plates to quantify the amount of luciferase. EC50 and CC50 values were defined as the compound concentration that causes a 50% decrease in luminescence signal, and were calculated using a sigmoidal dose-response model to generate curve fits.
(§1) MT-4 HIV High Resolution Antiviral Assay
(§2) Assay protocol is identical to that described for the MT-4 antiviral assay with the following changes: Each drug is run in 2 series of quadruplicates with different starting concentrations for each series and 19 1.5 fold dilutions performed across the plate. […] Data is analyzed and Hill coefficients determined in Graph Pad Prism (San Diego, Calif.). EC95s were determined by the formula EC95=(19)^I/hill coefficient×EC50. HD values were determined for certain compounds and reported in Table 5 below as an illustrative example.

For series [4], the target named is recombinant HIV protease (Human immunodeficiency virus type 1 group M subtype B, UniProt P04585). In words: biochemical.
Method: Inhibitor potency was measured using an enzymatic assay with a fluorogenic readout. […] After a 20-minute pre-incubation, the enzymatic reaction was initiated by the addition of the fluorogenic substrate (2-aminobenzoyl)Thr-Ile-Nle-(p-nitro)Phe-Gln-Arg (Bachem) to a final concentration of 40 μM. The total volume of the assay solution was 100 µL. The reaction was measured over 20 minutes on a Tecan Infinite M1000 plate reader using an excitation wavelength of 320 nm and a detection wavelength of 420 nm. The slopes of the progress curves were the measure of reaction rates.
Series [5] relates to HIV-1 (IIIB) in MT-4 cells. Kind of series: Protein adjusted EC95 (high resolution antiviral assay with equilibrium dialysis plasma protein binding). In kind it is cell-based. To be noted: EC95 adjusted for plasma protein binding (10% plasma vs cell culture media). The procedure:
as §1, §2
Equilibrium Dialysis Assay
Pooled plasma (from at least 3 males and 3 females) was from Bioreclamation IVT. Sodium EDTA was used as the anticoagulant. 10% plasma was diluted in 0.133M phosphate buffer consisted of 1.5% (w/v) Sodium EDTA.
RPMI cell culture media consisted 10% FBS was provided by biology department, Gilead Sciences, Inc.
Plasma Protein Binding Assay:
Studies were conducted in duplicate or triplicate using a Dianorm Equilibrium Dialyser (Harvard Apparatus, Holliston Mass.) with each cell consisting of a semipermeable membrane (2.4 cm working diameter) separating two 1 mL PTFE half-cells (Weder HG, Schildknecht J, Kesselring P. A new equilibrium dialyzing system. American Laboratory. 1971; 10: 15-21). Prior to the study, the dialysis membrane was soaked for approximately one hour in 0.133 M phosphate buffer, pH 7.4. 10% plasma and cell culture media spiked with 1 μM compound (1 mL) were placed into opposite sides of the assembled dialysis cells and the dialysis cells were then rotated slowly in a 37° C. water bath. After the equilibration period, matrix-containing samples from both sides were drained into pre-weighed polypropylene tubes. Post-dialysis 10% plasma samples were transferred into centrifuge tubes containing 1 mL of blank cell culture media. Post-dialysis cell culture media samples were transferred into centrifuge tubes containing 1 mL of blank 10% plasma. All samples weights were measured and recorded for calculations of volume shift and recovery. […]
(In general: In equilibrium dialysis only unbound substance equilibrates across the membrane.)

For series [6] the following is noted: 1 uM compound, NADPH. Put shortly: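 Depletion measured by LC/MS/MS at 2, 12, 25, 45 and 65 minutes after 1 uM compound was added to liver microsomes (0.5 mg/mL; dog, rat, human) with NADPH-regenerating cofactor, in duplicate. In vitro t1/2 converted to Clint.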

The structures appear in SMILES notation.

What is called EC50 is the concentration needed to bring the measured effect to its halfway point. By Vd is commonly meant the apparent volume that relates the amount in the body to the concentration in plasma or blood. The term EC95 denotes the point of the concentration-response curve where the effect stands at 95%. By Ki is commonly meant the equilibrium dissociation constant of an inhibitor or competing ligand from its target. Regarding `COC(=O)N[C@H](C(=O)N[C@@H](Cc1ccc(C#Cc2ccc(N3CC4CCC(C3)N4C3COC3)nc2)cc1)[C@@H](O)CN(Cc1c(F)cc(-c2ccn(C(F)F)n2)cc1F)NC(=O)[C@@H](NC(=O)OC)C(C)(C)C(F)(F)F)C(C)(C)C(F)(F)F` [Example 58, Methyl ((5S,8S,9S,14S)-11-(4-(1-(difluoromethyl)-1H-pyrazol-3-yl)-2,6-difluorobenzyl)-16,16,16-trifluoro-9-hydroxy-15,15-dimethyl-8-(4-((6-(8-(oxetan-3-yl)-3,8-diazabicyclo[3.2.1]octan-3-yl)pyridin-3-yl)ethynyl)benzyl)-3,6,13-trioxo-5-(1,1,1-trifluoro-2-methylpropan-2-yl)-2-oxa-4,7,11,12-tetraazahexadecan-14-yl)carbamate], the EC50 in series [1] is 4.79 nM. The molecule also showed a Vd in series [2] (male, SD, iv) of 6.68 L/kg. Moreover, in series [2] (male, SD, po, 2.5 mg/kg), the “RAT PO F” value worked out at 37.2%. Also, in series [2] (iv), the “RAT IV CL” value turned out to be 8 mL/min/kg and the “RAT IV T1/2” value turned out to be 12.8 h. For the same molecule, in series [3] (Human immunodeficiency virus 1, IIIB, MT4, high resolution assay, 40 data points, MT-4 cells, read-out: EC50), the EC50 amounted to 6.8 nM. Further, the EC95 in series [3] (calculated from Hill coefficient and EC50) was 11.4 nM. The Hill-coefficient in series [3] (high resolution assay, Graph Pad Prism) was 5.8. Also, in series [4], the Ki was 0.06 nM. In series [5], the “Protein Adjusted EC95” value came out at 353 nM. Besides, the “Human Pred Cl.” value in series [6] (human liver microsomes 0.5 mg/mL) is less than 0.11 L/H/kg. Further, the “Rat. Pred. Cl.” value in series [6] (rat liver microsomes 0.5 mg/mL) is 0.24 L/H/kg.
